Laboratory results: ChEMBL document CHEMBL4665770, “Design and Discovery of Natural Cyclopeptide Skeleton Based Programmed Death Ligand 1 Inhibitor as Immune Modulator for Cancer Therapy” (J Med Chem, 2020)
Activity calls are given as the source filed them. The calls are words filed in the database; no cut-off is given here.

How the values were obtained:
MC-38 [1] = assay: Induction of immune response mediated antitumor activity in mouse MC38 cells xenografted in C57/BL mouse assessed as tumor growth inhibition at 40 mg/kg, ip administered every other day from day 6 post implantation measured every 2 days; assay type: functional, organism-based
[2] = Toxicity in mouse MC38 cells xenografted C57/BL mouse assessed as change in body weight at 40 mg/kg, ip administered every other day from day 6 post implantation measured every 2 days; assay type: organism-based; details: in vivo, 48 h
MC-38 [3] = assay: Immunomodulatory activity in mouse MC38 cells xenografted in C57/BL mouse assessed as increase in infiltration of CD3-positive T cells at 40 mg/kg, ip administered every other day from day 6 post implantation by DAPI staining based immunofluorescence microscopy; assay type: functional, organism-based
MC-38 [4] = assay: Immunomodulatory activity in mouse MC38 cells xenografted in C57/BL mouse assessed as increase in perforin at 40 mg/kg, ip administered every other day from day 6 post implantation by hematoxylin staining based immunohistochemical analysis; assay type: functional, organism-based
MC-38 [5] = assay: Immunomodulatory activity in mouse MC38 cells xenografted in C57/BL mouse assessed as increase in granzyme B at 40 mg/kg, ip administered every other day from day 6 post implantation by hematoxylin staining based immunohistochemical analysis; assay type: functional, organism-based
MC-38 [6] = assay: Immunomodulatory activity in mouse MC38 cells xenografted in C57/BL mouse assessed as increase in infiltration of CD8-positive T cells at 40 mg/kg, ip administered every other day from day 6 post implantation by DAPI staining based immunofluorescence microscopy; assay type: functional, organism-based
MDA-MB-231 [7] = assay: Immunomodulatory activity in human MDA-MB-231 cells cocultured with human PBMC assessed as induction of PBMC recruitment to MDA-MB-231 cells by measuring increase in activated caspase-3 at 20 uM incubated for 24 hrs by GrennNuc caspase-3 substrate based assay; assay type: functional, cell-based
MDA-MB-231 [8] = assay: Immunomodulatory activity in human CFDA SE-labelled MDA-MB-231 cells cocultured with PMBC assessed as induction of PBMC recruitment to MDA-MB-231 cells by measuring early apoptotic cells at 20 uM incubated for 48 hrs by propidium iodide staining based flow cytometry analysis (reference value: 0 %); assay type: functional
MDA-MB-231 [9] = assay: Immunomodulatory activity in human CFDA SE-labelled MDA-MB-231 cells cocultured with PMBC assessed as induction of PBMC recruitment to MDA-MB-231 cells by measuring viable cells at 20 uM incubated for 48 hrs by propidium iodide staining based flow cytometry analysis (reference value: 99.87 %); assay type: functional
MDA-MB-231 [10] = assay: Immunomodulatory activity in human CFDA SE-labelled MDA-MB-231 cells cocultured with PMBC assessed as induction of PBMC recruitment to MDA-MB-231 cells by measuring late apoptotic cells at 20 uM incubated for 48 hrs by propidium iodide staining based flow cytometry analysis (reference value: 0 %); assay type: functional
MDA-MB-231 [11] = assay: Immunomodulatory activity in human CFDA SE-labelled MDA-MB-231 cells cocultured with PMBC assessed as induction of PBMC recruitment to MDA-MB-231 cells by measuring necrotic cell at 20 uM incubated for 48 hrs by propidium iodide staining based flow cytometry analysis (reference value: 0.13 %); assay type: functional
[12] = Toxicity in mouse MC38 cells xenografted C57/BL mouse assessed as death at 40 mg/kg, ip administered every other day from day 6 post implantation measured on day 14; assay type: organism-based; details: in vivo, time 14 day, read-out: Activity
[13] = Induction of immune response mediated antitumor activity in mouse B16F10 cells xenografted in C57/BL mouse assessed as reduction in tumor weight at 40 mg/kg, ip administered every other day from day 6 post implantation measured every 2 days relative to control; assay type: functional, B16-F10; set-up: scale not given: the % may be the effect or the level left
[14] = Induction of apoptosis in human PBMC cells assessed as activated caspase-3 at 20 uM incubated for 24 hrs by GrennNuc caspase-3 substrate based assay; assay type: cell-based
B16-F10 [15] = assay: Induction of immune response mediated antitumor activity in mouse B16F10 cells xenografted in C57/BL mouse assessed as change in ratio of CD8+/CD3+ cells at 40 mg/kg, ip administered every other day from day 6 post implantation by flow cytometry; assay type: functional, organism-based
B16-F10 [16] = assay: Induction of immune response mediated antitumor activity in mouse B16F10 cells xenografted in C57/BL mouse assessed as change in ratio of CD3+/CD45+ cells at 40 mg/kg, ip administered every other day from day 6 post implantation by flow cytometry; assay type: functional, organism-based
[17] = Induction of immune response mediated antitumor activity in mouse B16F10 cells xenografted in C57/BL mouse assessed as infiltration of CD8 cells at 40 mg/kg, ip administered every other day from day 6 post implantation by flow cytometry (reference value: 26.9 %); assay type: functional, B16-F10
[18] = Induction of immune response mediated antitumor activity in mouse B16F10 cells xenografted in C57/BL mouse assessed as infiltration of CD3 cells at 40 mg/kg, ip administered every other day from day 6 post implantation by flow cytometry (reference value: 1.45 %); assay type: functional, B16-F10
[19] = Induction of immune response mediated antitumor activity in mouse B16F10 cells xenografted in C57/BL mouse assessed as infiltration of CD45 cells at 40 mg/kg, ip administered every other day from day 6 post implantation by flow cytometry (reference value: 1.81 %); assay type: functional, B16-F10
B16-F10 [20] = assay: Induction of immune response mediated antitumor activity in mouse B16F10 cells xenografted in C57/BL mouse coadministered with anti-CD8 antibody assessed as suppression of tumor growth at 40 mg/kg, ip administered every other day from day 6 post implantation measured every 2 days; assay type: functional, organism-based
[21] = Induction of immune response mediated antitumor activity in mouse B16F10 cells xenografted in C57/BL mouse assessed as reduction in tumor volume at 40 mg/kg, ip administered every other day from day 6 post implantation measured every 2 days relative to control; assay type: functional, B16-F10; set-up: scale not given: the % may be the effect or the level left
B16-F10 [22] = assay: Toxicity in mouse B16F10 cells xenografted C57/BL mouse assessed as change in body weight at 40 mg/kg, ip administered every other day from day 6 post implantation measured every 2 days; assay type: organism-based; details: in vivo, 48 h
MDA-MB-231 [23] = assay: Induction of apoptosis in human MDA-MB-231 cells assessed as activated caspase-3 at 20 uM incubated for 24 hrs by GrennNuc caspase-3 substrate based assay; assay type: cell-based; details: mda-mb-231, 24 h
MDA-MB-231 [24] = assay: Immunomodulatory activity in human MDA-MB-231 cocultured with PMBC assessed as induction of PBMC recruitment to MDA-MB-231 cells by measuring increase in cell cluster at 20 uM incubated for 12 to 48 hrs by EVOS FL digital microscopic analysis; assay type: functional, cell-based; details: time hrs 12-48
MDA-MB-231 [25] = assay: Immunomodulatory activity in human MDA-MB-231 cells expressing luciferase assessed as induction of PBMC-induced cell death incubated for 72 hrs by LDH assay; assay type: functional, cell-based; details: dose microM 0.313-80, time 72.0 hrs
MDA-MB-231 [26] = assay: Cytotoxicity against human MDA-MB-231 cells expressing luciferase assessed as reduction in cell viability at 0.312 to 80 uM incubated for 72 hrs by tecan-plate reader based luciferase assay; details: mda-mb-231, 72 h, dose 0.312-80 µM
MDA-MB-231 [27] = assay: Cytotoxicity against human MDA-MB-231 cells assessed as reduction in cell viability at 0.312 to 80 uM incubated for 72 hrs by MTT assay; assay type: cell-based; details: mda-mb-231, 72 h, dose 0.312-80 µM
[28] = target: T1, Programmed cell death protein 1/Programmed cell death 1 ligand 1 (Homo sapiens, UniProt Q9NZQ7); assay: Inhibition of FC-tagged PD1/His-tagged PD-L1 (unknown origin) protein-proteiinteraction incubated for 3 hrs by coimmunoprecipitation-based Western blot assay; assay type: protein-complex assay
[29] = target: Programmed cell death protein 1 (Homo sapiens, UniProt Q15116); assay: Binding affinity to PD1 (unknown origin) by SPR analysis
[30] = target: Programmed cell death 1 ligand 1 (Homo sapiens, UniProt Q9NZQ7); assay: Binding affinity to PDL1 (unknown origin) by SPR analysis
[31] = target: T1, Programmed cell death protein 1/Programmed cell death 1 ligand 1; assay: Inhibition of PD1-Tag2/PD-L1-Tag1 (unknown origin) protein-protein interaction preincubated for 15 mins followed by addition of anti-Tag1-Eu3+ and anti-Tag2-XL665 measured after 3 hrs by HTRF assay; assay type: protein-complex assay
MDA-MB-231 [32] = assay: Immunomodulatory activity in human MDA-MB-231 cells expressing luciferase assessed as induction of PBMC-induced cell death incubated for 72 hrs by tecan-plate reader based luciferase assay; assay type: functional; details: dose microM 0.313-80, time 72.0 hrs
[33] = target: Programmed cell death protein 1/Programmed cell death 1 ligand 1 (Homo sapiens) (UniProt Q15116+Q9NZQ7); assay: Inhibition of PD1-Tag2/PD-L1-Tag1 (unknown origin) protein-protein interaction at 20 uM preincubated for 15 mins followed by addition of anti-Tag1-Eu3+ and anti-Tag2-XL665 measured after 3 hrs by HTRF assay relative to control; assay type: protein-complex assay; details: time 195.0 min

T1 sequence (Q15116 whole entry): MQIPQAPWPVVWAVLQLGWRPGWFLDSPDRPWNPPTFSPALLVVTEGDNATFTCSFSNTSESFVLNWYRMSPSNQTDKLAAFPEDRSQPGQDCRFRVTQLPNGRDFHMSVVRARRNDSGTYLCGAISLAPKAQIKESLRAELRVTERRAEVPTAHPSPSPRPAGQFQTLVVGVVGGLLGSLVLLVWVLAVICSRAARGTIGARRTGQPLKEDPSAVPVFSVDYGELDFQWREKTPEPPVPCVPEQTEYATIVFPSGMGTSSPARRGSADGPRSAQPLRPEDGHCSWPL
T1 sequence (Q9NZQ7 whole entry): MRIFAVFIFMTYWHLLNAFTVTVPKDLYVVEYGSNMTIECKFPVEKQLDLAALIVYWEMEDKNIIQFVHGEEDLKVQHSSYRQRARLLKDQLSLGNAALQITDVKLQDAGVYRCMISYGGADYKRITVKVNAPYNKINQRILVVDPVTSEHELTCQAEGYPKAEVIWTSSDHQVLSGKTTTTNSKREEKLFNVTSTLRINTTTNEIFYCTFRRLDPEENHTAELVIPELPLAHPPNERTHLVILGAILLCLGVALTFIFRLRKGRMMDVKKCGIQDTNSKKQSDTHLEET
Chain of Programmed cell death protein 1 (Q15116 whole entry): as the sequence (Q15116 whole entry) above
Chain of Programmed cell death 1 ligand 1 (Q9NZQ7 whole entry): as the sequence (Q9NZQ7 whole entry) above

Structure (SMILES): Cc1c(COc2ccc(CN3CCCCC3C(=O)O)cc2Br)cccc1-c1ccccc1 (centres undefined)
- TGI (MC-38 [1]): Active
- Activity [2]: Toxic
- Activity (MC-38 [3]): Active
- Activity (MC-38 [4]): Active
- Activity (MC-38 [5]): Active
- Activity (MC-38 [6]): Active
- Activity (MDA-MB-231 [7]): Active
- Activity (MDA-MB-231 [8]): 55%
- Activity (MDA-MB-231 [9]): 0.31%
- Activity (MDA-MB-231 [10]): 44.69%
- Activity (MDA-MB-231 [11]): 0%
- mortality at 336 h [12]: 75%

Structure (SMILES): CC(NCCCC[C@@H]1NC(=O)[C@@H](Cc2ccccc2)NC(=O)[C@H](CC(C)C)NC(=O)[C@H](CC(=O)O)NC(=O)[C@H]([C@@H](C)O)NC(=O)[C@@H]2CCCN2C(=O)[C@@H](Cc2c[nH]c3ccccc23)NC(=O)[C@H](CC(C)C)NC(=O)[C@H](CCCNC(=N)N)NC(=O)[C@H](C(C)C)NC1=O)=C1C(=O)CC(C)(C)CC1=O
- Activity [13]: 64.9%
- Activity [14]: Non-Toxic
- Activity (B16-F10 [15]): inactive
- Activity (B16-F10 [16]): inactive
- Activity [17]: 36.5%
- Activity [18]: 5.21%
- Activity [19]: 13.3%
- Activity (B16-F10 [20]): inactive
- Activity [21]: 54.8%
- Activity (B16-F10 [22]): Non-Toxic
- TGI (MC-38 [1]): Active
- Activity [2]: Non-Toxic
- Activity (MC-38 [3]): Active
- Activity (MC-38 [4]): Active
- Activity (MC-38 [5]): Active
- Activity (MC-38 [6]): Active
- Activity (MDA-MB-231 [7]): Active
- Activity (MDA-MB-231 [23]): Non-Toxic
- Activity (MDA-MB-231 [24]): Active
- Activity (MDA-MB-231 [8]): 42.33%
- Activity (MDA-MB-231 [9]): 0.46%
- Activity (MDA-MB-231 [10]): 57.03%
- Activity (MDA-MB-231 [11]): 0%
- Activity (MDA-MB-231 [25]): Dose-dependent effect
- Activity (MDA-MB-231 [26]): Non-Toxic
- Activity (MDA-MB-231 [27]): Non-Toxic
- IC50 [28]: 0.45 µM
- Kd [29]: 1660 µM
- Kd [30]: 5.67 µM
- IC50 [31]: 1.42 µM
- Activity (MDA-MB-231 [32]): Dose-dependent effect
- inhibition [33]: 95.8%
